The values that follow come from PMC7235778, “Methylxanthines Inhibit Primary Amine Oxidase and Monoamine Oxidase Activities of Human Adipose Tissue” (Medicines, 2020).

In general, inhibition refers to the percentage by which the read-out fell short of the control.

Assay [1] addresses T1, primary amine oxidase (PrAO; SSAO/VAP-1) (Homo sapiens, UniProt Q16853).
T1 construct: gene AOC3; native enzyme in human subcutaneous adipose tissue homogenate
T1 sequence (Q16853 1-763): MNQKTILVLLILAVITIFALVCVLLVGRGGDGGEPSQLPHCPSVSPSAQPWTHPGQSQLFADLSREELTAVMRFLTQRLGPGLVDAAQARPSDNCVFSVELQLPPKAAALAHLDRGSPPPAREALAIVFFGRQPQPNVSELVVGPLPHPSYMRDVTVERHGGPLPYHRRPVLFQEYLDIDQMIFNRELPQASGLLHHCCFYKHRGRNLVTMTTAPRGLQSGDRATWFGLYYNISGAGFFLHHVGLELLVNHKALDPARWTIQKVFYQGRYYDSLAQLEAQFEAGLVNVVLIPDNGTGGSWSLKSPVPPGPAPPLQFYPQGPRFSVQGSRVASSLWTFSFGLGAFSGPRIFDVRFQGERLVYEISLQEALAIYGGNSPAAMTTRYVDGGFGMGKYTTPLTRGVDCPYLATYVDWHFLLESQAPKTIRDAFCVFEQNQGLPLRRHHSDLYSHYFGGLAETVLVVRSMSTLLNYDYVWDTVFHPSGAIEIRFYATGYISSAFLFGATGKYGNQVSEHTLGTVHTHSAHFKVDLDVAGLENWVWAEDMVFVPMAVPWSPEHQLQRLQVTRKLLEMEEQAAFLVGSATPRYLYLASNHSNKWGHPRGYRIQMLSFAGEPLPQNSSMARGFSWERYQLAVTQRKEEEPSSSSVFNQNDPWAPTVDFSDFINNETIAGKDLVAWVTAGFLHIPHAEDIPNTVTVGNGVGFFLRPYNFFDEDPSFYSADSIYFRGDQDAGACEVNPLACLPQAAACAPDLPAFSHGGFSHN
In words: Amplex Red H2O2 assay of methylamine and benzylamine oxidation in adipose tissue homogenate. Type of assay: cell-based. To be noted: read-out: % inhibition at 1 mM.

Assay [2] concerns the target T1, primary amine oxidase (PrAO; SSAO/VAP-1). The assay is described as follows: Amplex Red H2O2 assay of benzylamine and methylamine oxidation in adipose tissue homogenate. Type of assay: biochemical.
Assay [3] shares this target. The description is as above. Type of assay: cell-based. The conditions noted are these: read-out: % inhibition at 2.5 mM.
For assay [4] the target is unchanged. The assay is described as follows: Amplex Red H2O2 assay of benzylamine oxidation in adipose tissue homogenate; Lineweaver-Burk analysis. Type of assay: cell-based. The conditions noted are these: read-out: % inhibition at 2.5 mM.

SMILES strings stand for the structures.

Turning to `CC(C)Cn1c(=O)n(C)c(=O)c2[nH]cnc21` [IBMX, 3-isobutyl-1-methylxanthine], the inhibition at 1000 µM in assay [1] is around 80%.

On to `NNC(N)=O` [Semi, semicarbazide], for which the “Amplex Red H2O2 assay of benzylamine and methylamine oxidation in adipose tissue” value in assay [2] is reported as “total inhibition at 1”.

For `Cn1c(=O)c2c(ncn2C)n(C)c1=O` [caffeine], the inhibition at 2500 µM in assay [3] was around 50%.

As to `Cn1cnc2c1c(=O)[nH]c(=O)n2C` [theobromine], the inhibition at 2500 µM in assay [4] stood at 54%.
